Measured values: patent US6660755B2, “Substituted diaryl or diheteroaryl methans, ethers and amines having retinoid agonist, antagonist or inverse agonist type biological activity” (Allergan, Inc., priority 1997, dated 2003)

How the values were obtained:
[1] = target: T1, RARα (Homo sapiens, UniProt P10276); experiment: Ligand binding assay, RARα
T1 sequence (P10276 1-462): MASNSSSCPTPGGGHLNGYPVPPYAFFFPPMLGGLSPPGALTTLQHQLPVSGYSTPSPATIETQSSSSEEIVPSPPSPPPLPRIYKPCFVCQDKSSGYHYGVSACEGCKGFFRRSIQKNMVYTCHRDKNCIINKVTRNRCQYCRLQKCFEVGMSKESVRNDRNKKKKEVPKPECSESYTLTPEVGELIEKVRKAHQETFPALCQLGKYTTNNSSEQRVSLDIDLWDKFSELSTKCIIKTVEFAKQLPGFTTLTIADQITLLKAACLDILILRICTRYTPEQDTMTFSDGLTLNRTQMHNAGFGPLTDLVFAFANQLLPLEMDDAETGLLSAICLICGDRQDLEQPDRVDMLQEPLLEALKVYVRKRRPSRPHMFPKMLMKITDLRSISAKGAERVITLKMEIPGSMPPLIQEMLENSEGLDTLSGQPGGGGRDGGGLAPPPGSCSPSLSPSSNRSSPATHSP
From the text: (§1) A holoreceptor transactivation assay and a ligand binding assay which measure the antagonist/agonist like activity of the compounds of the invention, or their ability to bind to the several retinoid receptor subtypes, respectively, are described in published PCT Application No. WO WO93/11755 (particularly on pages 30-33 and 37-41) published on Jun. 24, 1993, the specification of which is also incorporated herein by reference. A detailed experimental procedure for holoreceptor transactivations has been described by Heyman et al. Cell 1992, 68, 397-406; Allegretto et al. J. Biol. Chem. 1993 268, 26625-26633, and Mangelsdorf et al. The Retinoids: Biology, Chemistry and Medicine, pp 319-349, Raven Press Ltd., New York, which are expressly incorporated herein by reference. The results obtained in this assay are expressed in EC50 numbers, as they are also in the chimeric receptor transactivation assay. The results of ligand binding assay are expressed in Kd numbers. (See Cheng et al. Biochemical Pharmacology 22, 3099-3108, expressly incorporated herein by reference.) Still another transactivation assay, the “PGR assay” is described in the publication Klein et al. J. Biol. Chem. 1996, 271, 22692-22696, which is expressly incorporated herein by reference, and a detailed description is also provided below. The results of the PGR assay are also expressed in EC50 numbers (nanomolar concentration).

[2] = target: T2, RARβ (Homo sapiens, UniProt P10826); experiment: Ligand binding assay, RARβ; conditions: read-out: Kd RABβ
T2 sequence (P10826 1-455): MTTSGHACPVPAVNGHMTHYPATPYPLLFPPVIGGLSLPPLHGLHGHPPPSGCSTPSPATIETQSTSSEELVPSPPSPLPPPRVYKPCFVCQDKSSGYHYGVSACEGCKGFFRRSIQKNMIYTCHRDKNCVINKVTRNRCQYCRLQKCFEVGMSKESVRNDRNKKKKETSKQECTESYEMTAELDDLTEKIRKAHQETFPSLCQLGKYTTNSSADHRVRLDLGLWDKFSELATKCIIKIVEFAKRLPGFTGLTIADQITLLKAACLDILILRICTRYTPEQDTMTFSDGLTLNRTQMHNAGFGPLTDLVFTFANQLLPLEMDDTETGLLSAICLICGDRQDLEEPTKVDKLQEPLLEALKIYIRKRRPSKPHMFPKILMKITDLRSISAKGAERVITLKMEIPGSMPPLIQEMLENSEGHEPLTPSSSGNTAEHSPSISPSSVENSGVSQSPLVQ
From the text: as §1

[3] = target: T3, RARγ (Homo sapiens, UniProt P13631); experiment: Ligand binding assay, RARγ
T3 sequence (P13631 1-454): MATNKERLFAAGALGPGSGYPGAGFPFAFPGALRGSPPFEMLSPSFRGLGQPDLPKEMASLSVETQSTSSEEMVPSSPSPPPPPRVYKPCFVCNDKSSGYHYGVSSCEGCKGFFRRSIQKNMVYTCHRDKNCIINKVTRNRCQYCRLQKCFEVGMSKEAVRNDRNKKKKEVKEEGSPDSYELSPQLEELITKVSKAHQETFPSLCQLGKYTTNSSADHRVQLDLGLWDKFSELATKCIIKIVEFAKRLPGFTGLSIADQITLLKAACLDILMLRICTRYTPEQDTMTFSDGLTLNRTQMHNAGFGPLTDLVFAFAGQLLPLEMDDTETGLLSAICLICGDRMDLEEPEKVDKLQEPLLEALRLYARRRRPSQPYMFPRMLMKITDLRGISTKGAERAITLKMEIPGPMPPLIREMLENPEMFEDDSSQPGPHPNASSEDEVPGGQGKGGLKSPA
From the text: as §1

| Kd [1] [nM] | Kd [2] [nM] | Kd [3] [nM] | SMILES |
| --- | --- | --- | --- |
| 22.5 | 16 | 84 | CC(C)(C)c1ccc(C#Cc2ccc(C(=O)O)c(F)c2)cc1Oc1ccc(I)cc1 [Compound 20, 4-[[4′-tert-Butyl-3′-(4″-iodo)phenoxy]phenylethynyl]-2-fluoro-benzoic Acid] |
| 17 | 36 | 162 | CC(C)(C)c1ccc(/C=C/c2ccc(C(=O)O)cc2)cc1Oc1ccc(C(F)(F)F)cc1 [Compound 22, 4-[[4′-tert-Butyl-3′-(4″-trifluoromethyl)phenoxy]vinyl]benzoic Acid] |
| 12 | 9 | 22.5 | CCc1ccc(Oc2cc(C#Cc3ccc(C(=O)O)c(F)c3)ccc2C(C)(C)C)cc1 [Compound 25, 4-[[4′-tert-Butyl-3′-(4″-ethyl)phenoxy]phenylethynyl]-2-fluoro-benzoic Acid] |
| 11 | 10 | 17 | Cc1ccc(Oc2cc(C#Cc3ccc(C(=O)O)c(F)c3)ccc2C(C)(C)C)cc1 [Compound 26, 4-[[4′-tert-Butyl-3′-(4″-methyl)phenoxy]phenylethynyl]-2-fluoro-benzoic Acid] |
| 48 | 13 | 41 | Cc1ccc(Oc2cc(C#Cc3ccc(C(=O)O)cc3)ccc2C(C)(C)C)cc1 [Compound 30, 4-[[4′-tert-Butyl-3′-(4″-methyl)phenoxy]phenylethynyl]benzoic Acid] |

The next lines start with the compound.

| SMILES | Kd [1] [nM] | Kd [2] [nM] | Kd [3] [nM] |
| --- | --- | --- | --- |
| CC(C)(C)c1ccc(C#Cc2ccc(C(=O)O)cc2)cc1Oc1ccc(C(F)(F)F)cc1 [Compound 3, 4-[[4′-tert-Butyl-3′-(4″-trifluoromethyl)phenoxy]phenylethynyl]benzoic Acid] | 90 | 44 | 102 |
| CC(C)(C)c1ccc(C#Cc2ccc(C(=O)O)c(F)c2)cc1Oc1ccc(C(F)(F)F)cc1 [Compound 4, 4-[[4′-tert-Butyl-3′-(4″-trifluoromethyl)phenoxy]phenylethynyl]-2-fluoro-benzoic Acid] | 17 | 14.5 | 59 |
| Cc1ccc(Oc2cc(/C=C/c3ccc(C(=O)O)cc3)ccc2C(C)(C)C)cc1 [Compound 15, 4-[[4′-tert-Butyl-3′-(4″-methyl)phenoxy]phenylvinyl]benzoic Acid] | 12.5 | 0.8 | 33 |
| CC(C)(C)c1ccc(C#Cc2ccc(C(=O)O)c(F)c2)cc1Oc1ccc(N=[N+]=[N-])cc1 [Compound 17, 4-[[4′-tert-Butyl-3′-(4″-azido)phenoxy]phenylethynyl]-2-fluoro-benzoic Acid] | 20 | 24 | 18 |
